Experimental findings from patent publication US8546440B2, “Substituted bicyclic imidazole derivatives as gamma secretase modulators” (Janssen Pharmaceuticals, Inc., priority 2008, dated 2013) are described below.

Bounds are passed on as bounds.

Type in all cases: cell-based
The subject of test [1] is Aβ42. The test can be described thus: Screening for γ-secretase-modulating activity, Method 2: Aβ42 Alphalisa in supernatant of SKNBE2 cells carrying APP 695 wild type (Table 12c). The settings on record: Method 2, Table 12c, incubated overnight. The method, then:
(§1) Screening was carried out using SKNBE2 cells carrying the APP 695—wild type, grown in Dulbecco's Modified Eagle's Medium/Nutrient mixture F-12 (DMEM/NUT-mix F-12) (HAM) provided by Invitrogen (cat no. 10371-029) containing 5% Serum/Fe supplemented with 1% non-essential amino acids, 1-glutamine 2 mM, Hepes 15 mM, penicillin 50 U/ml (units/ml) en streptomycin 50 μg/ml. Cells were grown to near confluency.
(§2) The screening was performed using a modification of the assay as described in Citron et al (1997) Nature Medicine 3: 67. Briefly, cells were plated in a 384-well plate at 10^4 cells/well in Ultraculture (Lonza, BE12-725F) supplemented with 1% glutamine (Invitrogen, 25030-024), 1% non-essential amino acid (NEAA), penicillin 50 U/ml en streptomycin 50 μg/ml in the presence of test compound at different test concentrations. The cell/compound mixture was incubated overnight at 37° C., 5% CO2, The next day the media were assayed by two sandwich immuno-assays, for Aβ42 and Aβtotal.
(§3) Aβtotal and Aβ42 concentrations were quantified in the cell supernatant using the Aphalisa technology (Perkin Elmer). Alphalisa is a sandwich assay using biotinylated antibody attached to streptavidin coated donorbeads and antibody conjugated to acceptor beads. In the presence of antigen, the beads come into close proximity. The excitation of the donor beads provokes the release of singlet oxygen molecules that trigger a cascade of energy transfer in the acceptor beads, resulting in light emission. To quantify the amount of Aβ42 in the cell supernatant, monoclonal antibody specific to the C-terminus of Aβ42 (JRF/cAβ42/26) was coupled to the receptor beads and biotinylated antibody specific to the N-terminus of Aβ (JRF/AβN/25) was used to react with the donor beads. To quantify the amount of Aβtotal in the cell supernatant, monoclonal antibody specific to the N-terminus of Aβ (JRF/AβN/25) was coupled to the receptor beads and biotinylated antibody specific to the mid region of Aβ (biotinylated 4G8) was used to react with the donor beads.
(§4) To obtain the values reported in Table 12c, the data are calculated as percentage of the maximum amount of amyloid Beta 42 measured in the absence of the test compound. The sigmoidal dose response curves were analyzed using non-linear regression analysis with percentage of the control plotted against the log concentration of the compound. A 4-parameter equation was used to determine the IC50.
For orientation: Bead proximity is the source of the signal in Alpha formats.

For test [2], the system named is Aβ42. The test can be described thus: Screening for γ-secretase-modulating activity, Method 1: Aβ42 sandwich ELISA in supernatant of SKNBE2 cells carrying APP 695 wild type (Tables 12a, 12b). The settings on record: Table 12b, Method 1, SKNBE2 cells carrying APP 695 wild type, cell supernatant ELISA, averaged IC50 values, percentage of control vs log concentration. The essentials:
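SKNBE2 cells expressing wild-type APP695 were treated with compound for 18 h, and secreted Aβ42 in the medium was quantified by sandwich ELISA (C-terminal-selective capture, biotinylated 3D6 detection, TMB read at 450 nm). IC50 came from 4-parameter fits of % inhibition or % of untreated control; toxicity was checked by WST-1.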
For orientation: An ELISA detects its analyte on a solid surface through an enzyme-linked reagent.

Test [3] concerns Aβtotal. Put plainly: Screening for γ-secretase-modulating activity, Method 1: Aβtotal sandwich ELISA in supernatant of SKNBE2 cells carrying APP 695 wild type (Tables 12a, 12b). Particulars: Table 12b, Method 1, SKNBE2 cells carrying APP 695 wild type, cell supernatant ELISA, averaged IC50 values. Summed up:
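SKNBE2 cells expressing wild-type APP 695 were plated a day ahead, then exposed to compound in Ultraculture with 1% glutamine for 18 hours. Supernatant Aβtotal captured on 6E10 overnight at 4° C, detected with biotinylated 4G8 and streptavidin-peroxidase with a fluorogenic substrate. IC50 from 4-parameter dose-response fits.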

The test system of test [4] is Aβtotal. Put plainly: Screening for γ-secretase-modulating activity, Method 2: Aβtotal Alphalisa in supernatant of SKNBE2 cells carrying APP 695 wild type (Table 12c). The settings on record: Method 2, Table 12c, incubated overnight. The method, then: as §1, §2, §3, §4

By IC50 is commonly meant the concentration that gives 50% inhibition. The low end stands for higher potency, the high end for lower potency. For the compound `COc1cc(Nc2cccn3c(C)c(-c4ccccc4Cl)nc23)ccc1-n1cnc(C)n1` [Compound 124], the IC50 was 18 nM in test [1] (Homo sapiens), 11 nM in test [2] (Homo sapiens), more than 3020 nM in test [3] (Homo sapiens) and 9120 nM in test [4] (Homo sapiens).

Turning to `COc1cc(Nc2cccn3cc(C4CCOCC4)nc23)ccc1-n1cnc(C)n1` [Compound 136], the IC50 was 813 nM in test [1] (Homo sapiens), 676 nM in test [2] (Homo sapiens), more than 30200 nM in test [3] (Homo sapiens) and more than 10000 nM in test [4] (Homo sapiens).

As to `COc1cc(Nc2cccn3cc(CC(F)(F)F)nc23)ccc1-n1cnc(C)c1` [Compound 109], the IC50 is 60 nM in test [1], 15 nM in test [2], more than 3020 nM in test [3] and more than 10000 nM in test [4].

In the case of `COc1cc(Nc2cc(C(F)(F)F)cn3cc(C(C)(C)O)nc23)ccc1-n1cnc(C)c1` [Compound 151], the IC50 in test [1] is 219 nM; in test [2] it was 513 nM; in test [3], more than 3020 nM; in test [4], more than 10000 nM.

On to `COc1nc(Nc2cccn3cc(C)nc23)ccc1-n1cnc(C)c1` [Compound 144], for which the IC50 in test [1] is 120 nM; in test [2], 100 nM; in test [3] it was more than 3020 nM; in test [4], more than 10000 nM.

On to `COCCCc1c(-c2ccc(F)cc2)nc2c(Nc3ccc(-n4cnc(C)n4)c(OC)c3)cccn12` [Compound 129], for which the IC50 is 74 nM in test [1], 46 nM in test [2], more than 10000 nM in test [3] and more than 10000 nM in test [4].

In the case of `COc1cc(Nc2cccn3cc(-c4cc(C#N)ccc4C)nc23)ccc1-n1cnc(C)n1` [Compound 135], the IC50 in test [1] (Homo sapiens) is 102 nM; in test [2] (Homo sapiens), 631 nM; in test [3] (Homo sapiens) it was more than 10000 nM; in test [4] (Homo sapiens) it was more than 10000 nM.

`CCOC(=O)c1cn2cc(C(F)(F)F)cc(Nc3ccc(-n4cnc(C)c4)c(OC)c3)c2n1` [Compound 155]: the half-inhibitory concentration (IC50) was 28 nM in test [1], 24 nM in test [2], more than 3020 nM in test [3] and more than 10000 nM in test [4].

On to `COc1cc(Nc2nccn3cc(-c4ccc(F)cc4)nc23)ccc1-n1cnc(C)c1` [Compound 175], for which the IC50 in test [1] is 72 nM; in test [2], 41 nM; in test [3] it was more than 3020 nM; in test [4] it was 5250 nM.

`COCc1c(-c2ccccc2Cl)nc2c(Nc3ccc(-n4cnc(C)c4)c(F)c3)cccn12` [Compound 103]: the IC50 in test [1] was 19 nM; in test [2], 13 nM; in test [3] it was more than 3020 nM; in test [4], more than 10000 nM.

With `Cc1cn(-c2ccc(Nc3cc(F)cn4cc(C5CCOCC5)nc34)cc2F)cn1` [Compound 149], the half-maximal inhibitory concentration (IC50) is 174 nM in test [1], 389 nM in test [2], more than 10000 nM in test [3] and more than 10000 nM in test [4].

As to `Cc1cn(-c2ccc(Nc3cc(C(F)(F)F)nn4cc(C)nc34)cc2F)cn1` [Compound 173], the IC50 in test [1] is more than 10000 nM; in test [2], more than 3020 nM; in test [3] it was more than 3020 nM; in test [4] it was more than 10000 nM.

For `COc1cc(Nc2ccnn3cc(-c4cc(F)ccc4C)nc23)ccc1-n1cnc(C)c1` [Compound 159], the IC50 in test [1] (Homo sapiens) was 55 nM; in test [4] (Homo sapiens) it was 4790 nM.

On to `CCC(=O)NCc1ccc(C)c(-c2cn3cccc(Nc4ccc(-n5cnc(C)c5)c(OC)c4)c3n2)c1` [Compound 111], for which the IC50 in test [1] (Homo sapiens) was 65 nM; in test [4] (Homo sapiens), 5500 nM.

On to `COc1cc(Nc2cc(Cl)nn3cc(C)nc23)ccc1-n1cnc(C)c1` [Compound 165], for which the half-inhibitory concentration (IC50) in test [1] is 178 nM; in test [4], more than 10000 nM.

As for `COCc1c(-c2ccccc2Cl)nc2c(Nc3ccc(-n4cnc(C)c4)c(OC)n3)cccn12` [Compound 140], the results for the IC50 in test [1] and in test [4] were 6 nM and 4070 nM, respectively.

For the compound `COc1cc(Nc2cc(C(C)C)nn3cc(C)nc23)ccc1-n1cnc(C)c1` [Compound 160], the IC50 in test [1] was 87 nM; in test [4], more than 10000 nM.
